Data from patent US20020161052A1, “Terminally-branched polymeric linkers and polymeric conjugates containing the same” (priority 2001, published 2002).

Tests used:
[1] = tested on: P388/O (murine lymphoid neoplasm) cell line; assay: In vitro bioassay, cell growth by Alamar Blue; format: cell-based; conditions: Mus musculus, 72 h; P388/O cells, three days, 37° C., in duplicate; SD ± 10%
Experimental: A series of in vitro assays were conducted to determine the IC50 for unmodified Ara-C and compound 10 using the P388/O (murine lymphoid neoplasm, Southern Research Institute) cell line. The P388/0 cells were grown in RPMI 1640 medium (Whittaker Bioproducts, Walkersville, Md.) +10% FBS (Hyclone Inc., Logan UT). Bioassays were performed in their respective media containing antibiotics and fungizone.
Ara-C was dissolved in DMSO and diluted to the appropriate concentration in culture media. The PEG-Ara-C compounds were dissolved in water and diluted to the appropriate concentrations in culture media.
The assays were performed in duplicate in 96-well microtiter cell culture plates. Two fold serial dilution of the compounds were done in the microtiter plates. Cells were detached by incubating with 0.1% Trypsin/Versene at 37°. Trypsin was inactivated by adding the appropriate media for each cell line containing 10% FBS. To each well of the microtiter plates, 10,000 cells were added. After three days, cell growth was measured by addition of a metabolic indicator dye, Alamar Blue, according to the manufacturer's protocol. The IC50 value for the test compounds and reference compound are provided above in the Table.

LX-1 = LX-1 subcutaneous tumor in athymic nude mice; format: in vivo; conditions: 100 mg/kg, i.v. q3d×4, athymic nude mice; mean baseline tumor volume 1000 mm^3
Experimental: Athymic nude mice were implanted subcutaneous with a 4-5 mm^3 tissue fragment of LX-1 collected from donor mice. The tumor trocar site was observed twice weekly and measured once palpable. The tumor volume for each mouse was determined by measuring two dimensions with calipers and calculated using the formula: tumor volume=(length×width^2)/2. […] The mice were sorted to evenly distribute tumor size, grouped into 4 to 6 mice/group, and ear punched for permanent identification. Drugs were administered intravenously q3d×4 (Day 1, 4, 7 and 10) via the tail vein at an approximate rate of 0.5 mL per minute.

IC50 [1]: 10 nM
SMILES: Nc1ccn([C@@H]2O[C@H](CO)[C@@H](O)[C@@H]2O)c(=O)n1 [Ara-C, cytosine arabinoside]
LX-1 % T/C (LX-1): 74.0%
